Key:
Assay in all cases: biochemical
Type in all cases: binding
panel of 442 kinases [1] = biological target: T1, panel of 442 kinases (Homo sapiens, UniProt P07333); conditions: CSF1R; for remaining activity at 1 µM: read-out: % of control at 1 µM
T1 construct: purchased Ambit Biosciences (scanMAXX KINOMEscan)

panel of 442 kinases [2] = biological target: T2, panel of 442 kinases (Homo sapiens, UniProt Q00532); conditions: CDKL1; for remaining activity at 1 µM: read-out: % of control at 1 µM
T2 construct: purchased Ambit Biosciences (scanMAXX KINOMEscan)
T2 sequence (Q00532 whole entry): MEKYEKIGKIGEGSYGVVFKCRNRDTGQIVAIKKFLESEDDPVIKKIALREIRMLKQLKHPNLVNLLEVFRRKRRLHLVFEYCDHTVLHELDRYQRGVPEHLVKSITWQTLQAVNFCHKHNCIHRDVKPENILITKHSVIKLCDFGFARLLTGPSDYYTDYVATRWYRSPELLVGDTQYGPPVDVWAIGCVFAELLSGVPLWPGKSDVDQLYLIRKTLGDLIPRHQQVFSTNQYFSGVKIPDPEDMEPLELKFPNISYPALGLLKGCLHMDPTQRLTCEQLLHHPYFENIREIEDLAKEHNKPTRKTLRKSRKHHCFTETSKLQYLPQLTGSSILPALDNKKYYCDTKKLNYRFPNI

panel of 442 kinases [3] = biological target: T3, panel of 442 kinases (Homo sapiens, UniProt P51451); conditions: BLK; for remaining activity at 1 µM: read-out: % of control at 1 µM
T3 construct: purchased Ambit Biosciences (scanMAXX KINOMEscan)
T3 sequence (P51451 whole entry): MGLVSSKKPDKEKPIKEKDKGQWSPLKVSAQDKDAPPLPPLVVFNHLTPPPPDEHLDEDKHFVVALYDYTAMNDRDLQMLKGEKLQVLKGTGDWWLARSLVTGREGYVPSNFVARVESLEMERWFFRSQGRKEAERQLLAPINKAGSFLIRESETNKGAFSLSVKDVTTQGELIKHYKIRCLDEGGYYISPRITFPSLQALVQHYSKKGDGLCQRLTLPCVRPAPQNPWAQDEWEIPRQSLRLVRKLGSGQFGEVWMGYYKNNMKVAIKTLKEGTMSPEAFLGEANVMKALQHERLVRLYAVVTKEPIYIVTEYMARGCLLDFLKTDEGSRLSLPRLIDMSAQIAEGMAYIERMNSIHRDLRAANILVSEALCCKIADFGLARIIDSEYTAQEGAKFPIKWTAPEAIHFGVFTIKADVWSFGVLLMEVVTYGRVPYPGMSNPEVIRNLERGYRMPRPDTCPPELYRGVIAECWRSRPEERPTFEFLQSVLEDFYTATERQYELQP

panel of 442 kinases [4] = biological target: T4, panel of 442 kinases (Homo sapiens, UniProt P29376); conditions: kinase LTK; for remaining activity at 1 µM: read-out: % of control at 1 µM
T4 construct: purchased Ambit Biosciences (scanMAXX KINOMEscan)
T4 sequence (P29376 17-864): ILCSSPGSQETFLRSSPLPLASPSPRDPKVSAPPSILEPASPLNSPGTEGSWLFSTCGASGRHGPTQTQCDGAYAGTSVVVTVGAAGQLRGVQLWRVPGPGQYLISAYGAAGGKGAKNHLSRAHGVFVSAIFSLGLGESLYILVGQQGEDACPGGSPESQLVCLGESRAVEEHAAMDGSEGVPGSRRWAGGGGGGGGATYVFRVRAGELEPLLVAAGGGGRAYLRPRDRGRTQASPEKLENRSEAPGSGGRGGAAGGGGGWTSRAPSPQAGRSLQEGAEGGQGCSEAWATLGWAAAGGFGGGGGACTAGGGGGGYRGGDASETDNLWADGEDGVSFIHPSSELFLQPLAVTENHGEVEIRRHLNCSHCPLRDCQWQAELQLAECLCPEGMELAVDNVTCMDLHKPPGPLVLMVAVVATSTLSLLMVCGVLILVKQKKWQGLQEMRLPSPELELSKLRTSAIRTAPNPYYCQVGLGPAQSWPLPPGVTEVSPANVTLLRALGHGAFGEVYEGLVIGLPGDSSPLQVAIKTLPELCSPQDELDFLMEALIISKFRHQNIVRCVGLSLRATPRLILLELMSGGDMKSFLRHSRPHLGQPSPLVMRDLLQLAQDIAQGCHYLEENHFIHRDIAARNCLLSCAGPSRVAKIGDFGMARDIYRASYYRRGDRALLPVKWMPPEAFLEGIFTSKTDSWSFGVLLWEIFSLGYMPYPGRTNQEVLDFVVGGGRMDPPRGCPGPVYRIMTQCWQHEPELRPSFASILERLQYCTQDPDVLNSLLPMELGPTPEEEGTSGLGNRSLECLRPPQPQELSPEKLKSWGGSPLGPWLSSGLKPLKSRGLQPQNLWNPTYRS

panel of 442 kinases [5] = biological target: T5, panel of 442 kinases (Homo sapiens, UniProt Q8WXR4); conditions: kinase MYO3B; for remaining activity at 1 µM: read-out: % of control at 1 µM
T5 construct: purchased Ambit Biosciences (scanMAXX KINOMEscan)
T5 sequence (Q8WXR4 1-1341): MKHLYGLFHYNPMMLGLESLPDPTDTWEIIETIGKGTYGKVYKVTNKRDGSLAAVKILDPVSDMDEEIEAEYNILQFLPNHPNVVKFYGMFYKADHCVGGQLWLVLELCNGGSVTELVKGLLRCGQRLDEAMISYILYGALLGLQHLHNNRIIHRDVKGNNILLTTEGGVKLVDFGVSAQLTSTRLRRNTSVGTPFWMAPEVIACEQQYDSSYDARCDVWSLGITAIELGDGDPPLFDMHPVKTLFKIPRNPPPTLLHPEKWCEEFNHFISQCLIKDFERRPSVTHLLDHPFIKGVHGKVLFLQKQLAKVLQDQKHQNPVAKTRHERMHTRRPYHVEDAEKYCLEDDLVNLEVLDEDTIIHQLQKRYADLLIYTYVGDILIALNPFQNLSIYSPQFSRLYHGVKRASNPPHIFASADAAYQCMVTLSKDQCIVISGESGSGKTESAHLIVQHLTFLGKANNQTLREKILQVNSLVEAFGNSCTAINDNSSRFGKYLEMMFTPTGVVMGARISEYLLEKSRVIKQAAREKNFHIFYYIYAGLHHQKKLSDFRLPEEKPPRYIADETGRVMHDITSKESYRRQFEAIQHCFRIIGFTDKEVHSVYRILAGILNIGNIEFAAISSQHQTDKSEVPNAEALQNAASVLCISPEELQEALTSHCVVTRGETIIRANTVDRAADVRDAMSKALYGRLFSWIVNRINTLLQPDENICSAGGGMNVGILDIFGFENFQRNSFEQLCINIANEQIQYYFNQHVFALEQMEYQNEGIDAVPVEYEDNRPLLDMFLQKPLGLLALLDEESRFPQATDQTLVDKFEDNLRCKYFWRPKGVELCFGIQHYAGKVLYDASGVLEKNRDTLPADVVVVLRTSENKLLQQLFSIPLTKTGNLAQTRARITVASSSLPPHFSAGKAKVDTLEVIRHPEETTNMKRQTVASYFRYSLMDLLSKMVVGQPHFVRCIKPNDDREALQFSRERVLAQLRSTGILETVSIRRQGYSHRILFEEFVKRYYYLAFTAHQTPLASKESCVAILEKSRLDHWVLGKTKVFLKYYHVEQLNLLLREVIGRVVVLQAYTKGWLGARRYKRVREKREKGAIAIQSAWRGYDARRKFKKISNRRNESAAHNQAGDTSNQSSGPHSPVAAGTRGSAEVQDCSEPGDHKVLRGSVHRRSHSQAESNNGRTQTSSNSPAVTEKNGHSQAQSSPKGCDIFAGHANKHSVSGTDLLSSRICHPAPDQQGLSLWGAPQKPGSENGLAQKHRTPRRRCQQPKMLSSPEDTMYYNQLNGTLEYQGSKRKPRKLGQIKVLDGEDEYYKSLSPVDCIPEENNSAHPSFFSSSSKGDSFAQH

panel of 442 kinases [6] = biological target: T6, panel of 442 kinases (Homo sapiens, UniProt Q9P289); conditions: kinase MST4; for remaining activity at 1 µM: read-out: % of control at 1 µM
T6 construct: purchased Ambit Biosciences (scanMAXX KINOMEscan)
T6 sequence (Q9P289 whole entry): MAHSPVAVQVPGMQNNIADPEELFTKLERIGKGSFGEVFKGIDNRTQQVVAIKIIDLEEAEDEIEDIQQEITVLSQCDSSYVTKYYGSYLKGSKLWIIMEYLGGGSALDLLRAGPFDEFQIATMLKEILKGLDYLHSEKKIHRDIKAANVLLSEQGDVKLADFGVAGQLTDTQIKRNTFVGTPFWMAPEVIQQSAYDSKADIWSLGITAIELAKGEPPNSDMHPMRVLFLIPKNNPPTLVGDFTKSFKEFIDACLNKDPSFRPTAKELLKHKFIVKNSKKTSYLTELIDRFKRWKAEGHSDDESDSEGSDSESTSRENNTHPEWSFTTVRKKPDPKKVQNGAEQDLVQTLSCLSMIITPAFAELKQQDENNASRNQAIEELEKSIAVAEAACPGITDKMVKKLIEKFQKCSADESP

panel of 442 kinases [7] = biological target: T7, panel of 442 kinases (Homo sapiens, UniProt Q8IU85); conditions: CAMK1D; for remaining activity at 1 µM: read-out: % of control at 1 µM
T7 construct: purchased Ambit Biosciences (scanMAXX KINOMEscan)
T7 sequence (Q8IU85 whole entry): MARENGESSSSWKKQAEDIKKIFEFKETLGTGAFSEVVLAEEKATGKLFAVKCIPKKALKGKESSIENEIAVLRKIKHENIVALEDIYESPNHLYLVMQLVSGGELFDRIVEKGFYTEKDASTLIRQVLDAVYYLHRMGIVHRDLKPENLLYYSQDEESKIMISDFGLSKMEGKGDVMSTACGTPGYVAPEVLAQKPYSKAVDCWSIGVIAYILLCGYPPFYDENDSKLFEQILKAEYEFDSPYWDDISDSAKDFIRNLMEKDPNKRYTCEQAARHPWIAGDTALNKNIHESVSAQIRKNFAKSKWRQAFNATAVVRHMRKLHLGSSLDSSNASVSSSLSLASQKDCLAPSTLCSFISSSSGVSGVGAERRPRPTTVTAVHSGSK

panel of 442 kinases [8] = biological target: T8, panel of 442 kinases (Homo sapiens, UniProt O43283); conditions: kinase LZK; for remaining activity at 1 µM: read-out: % of control at 1 µM
T8 construct: purchased Ambit Biosciences (scanMAXX KINOMEscan)
T8 sequence (O43283 1-966): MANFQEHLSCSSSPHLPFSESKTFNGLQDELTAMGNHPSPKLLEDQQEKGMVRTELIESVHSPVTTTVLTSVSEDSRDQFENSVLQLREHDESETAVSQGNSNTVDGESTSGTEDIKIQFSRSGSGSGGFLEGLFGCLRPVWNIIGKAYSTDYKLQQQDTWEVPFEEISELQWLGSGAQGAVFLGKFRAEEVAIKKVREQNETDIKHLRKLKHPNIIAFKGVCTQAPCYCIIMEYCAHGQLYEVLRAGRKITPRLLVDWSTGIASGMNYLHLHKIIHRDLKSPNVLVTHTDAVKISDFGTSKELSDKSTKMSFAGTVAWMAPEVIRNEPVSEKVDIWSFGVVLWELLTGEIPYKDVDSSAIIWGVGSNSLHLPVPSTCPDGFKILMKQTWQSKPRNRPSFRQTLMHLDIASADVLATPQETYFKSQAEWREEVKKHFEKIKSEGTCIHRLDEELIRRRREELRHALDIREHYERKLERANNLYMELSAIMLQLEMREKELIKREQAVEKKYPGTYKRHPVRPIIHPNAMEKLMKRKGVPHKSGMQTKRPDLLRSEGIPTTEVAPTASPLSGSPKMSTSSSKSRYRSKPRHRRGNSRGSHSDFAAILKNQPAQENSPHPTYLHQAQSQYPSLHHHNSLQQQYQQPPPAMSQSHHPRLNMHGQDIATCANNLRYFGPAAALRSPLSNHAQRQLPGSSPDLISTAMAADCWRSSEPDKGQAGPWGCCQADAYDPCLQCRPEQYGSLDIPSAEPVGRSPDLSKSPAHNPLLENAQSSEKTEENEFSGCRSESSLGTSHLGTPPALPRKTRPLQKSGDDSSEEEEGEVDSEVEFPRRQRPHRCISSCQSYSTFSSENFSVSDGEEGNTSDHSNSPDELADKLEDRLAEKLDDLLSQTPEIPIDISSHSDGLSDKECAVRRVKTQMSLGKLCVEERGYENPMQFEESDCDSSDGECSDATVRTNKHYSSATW

panel of 442 kinases [9] = biological target: T9, panel of 442 kinases (Homo sapiens, UniProt Q13627); conditions: DYRK1A; for remaining activity at 1 µM: read-out: % of control at 1 µM
T9 construct: purchased Ambit Biosciences (scanMAXX KINOMEscan)

[10] = 10 µM, read-out: % of control at 10 µM

T1 sequence (P07333 20-972): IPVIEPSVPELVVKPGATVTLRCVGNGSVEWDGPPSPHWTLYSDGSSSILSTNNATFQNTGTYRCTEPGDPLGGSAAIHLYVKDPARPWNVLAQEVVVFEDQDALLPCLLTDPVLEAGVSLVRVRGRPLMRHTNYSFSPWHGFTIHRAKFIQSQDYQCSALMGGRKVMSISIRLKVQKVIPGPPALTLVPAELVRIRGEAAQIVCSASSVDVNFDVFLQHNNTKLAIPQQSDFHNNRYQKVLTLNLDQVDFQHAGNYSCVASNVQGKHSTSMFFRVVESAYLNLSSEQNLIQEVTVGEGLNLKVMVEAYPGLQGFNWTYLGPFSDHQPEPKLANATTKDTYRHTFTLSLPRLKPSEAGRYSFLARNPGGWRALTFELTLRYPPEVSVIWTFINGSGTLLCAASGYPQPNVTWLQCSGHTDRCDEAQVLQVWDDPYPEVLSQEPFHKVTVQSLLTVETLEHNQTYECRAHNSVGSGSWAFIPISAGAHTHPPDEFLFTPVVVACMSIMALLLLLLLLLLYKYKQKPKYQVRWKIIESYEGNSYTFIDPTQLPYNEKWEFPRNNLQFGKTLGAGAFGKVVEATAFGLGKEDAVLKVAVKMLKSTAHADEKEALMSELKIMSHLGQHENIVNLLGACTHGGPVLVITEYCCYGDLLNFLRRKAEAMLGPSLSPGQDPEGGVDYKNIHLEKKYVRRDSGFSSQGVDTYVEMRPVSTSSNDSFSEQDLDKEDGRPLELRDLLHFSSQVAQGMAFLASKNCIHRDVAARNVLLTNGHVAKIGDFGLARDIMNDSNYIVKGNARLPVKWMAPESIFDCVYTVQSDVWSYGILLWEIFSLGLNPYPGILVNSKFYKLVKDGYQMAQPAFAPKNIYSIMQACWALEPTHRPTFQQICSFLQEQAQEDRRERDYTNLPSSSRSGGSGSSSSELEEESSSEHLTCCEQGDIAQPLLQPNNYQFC

SMILES: Nc1cc(C(F)(F)F)c(-c2cc(N3CCOCC3)nc(N3CCOCC3)n2)cn1 [Buparlisib]
- remaining activity at 1 µM (panel of 442 kinases [1]): 85%
- remaining activity at 10 µM (panel of 442 kinases [1]; [10]): 40%
- remaining activity at 1 µM (panel of 442 kinases [2]): 100%
- remaining activity at 10 µM (panel of 442 kinases [2]; [10]): 100%
- remaining activity at 1 µM (panel of 442 kinases [3]): 93%
- remaining activity at 10 µM (panel of 442 kinases [3]; [10]): 100%
- remaining activity at 1 µM (panel of 442 kinases [4]): 99%
- remaining activity at 10 µM (panel of 442 kinases [4]; [10]): 100%
- remaining activity at 1 µM (panel of 442 kinases [5]): 51%
- remaining activity at 10 µM (panel of 442 kinases [5]; [10]): 73%
- remaining activity at 1 µM (panel of 442 kinases [6]): 100%
- remaining activity at 10 µM (panel of 442 kinases [6]; [10]): 74%
- remaining activity at 1 µM (panel of 442 kinases [7]): 100%
- remaining activity at 10 µM (panel of 442 kinases [7]; [10]): 100%
- remaining activity at 1 µM (panel of 442 kinases [8]): 81%
- remaining activity at 10 µM (panel of 442 kinases [8]; [10]): 98%
- remaining activity at 1 µM (panel of 442 kinases [9]): 80%
- remaining activity at 10 µM (panel of 442 kinases [9]; [10]): 51%

SMILES: Cn1c(=O)n(-c2ccc(C(C)(C)C#N)cc2)c2c3cc(-c4cnc5ccccc5c4)ccc3ncc21 [Dactolisib, 2-methyl-2-[4-(3-methyl-2-oxo-8-quinolin-3-yl-2,3-dihydroimidazo[4,5-c]quinolin-1-yl)-phenyl] propionitrile]
- remaining activity at 1 µM (panel of 442 kinases [2]): 100%
- remaining activity at 1 µM (panel of 442 kinases [3]): 97%
- remaining activity at 1 µM (panel of 442 kinases [4]): 23%
- remaining activity at 1 µM (panel of 442 kinases [5]): 81%
- remaining activity at 1 µM (panel of 442 kinases [6]): 76%
- remaining activity at 1 µM (panel of 442 kinases [7]): 87%
- remaining activity at 1 µM (panel of 442 kinases [8]): 100%
- remaining activity at 1 µM (panel of 442 kinases [9]): 100%

SMILES: COc1ncc(-c2ccc3nccc(-c4ccnnc4)c3c2)cc1NS(=O)(=O)c1ccc(F)cc1F [Omipalisib]
- remaining activity at 1 µM (panel of 442 kinases [1]): 100%
- remaining activity at 1 µM (panel of 442 kinases [2]): 100%
- remaining activity at 1 µM (panel of 442 kinases [3]): 94%
- remaining activity at 1 µM (panel of 442 kinases [4]): 88%
- remaining activity at 1 µM (panel of 442 kinases [5]): 91%
- remaining activity at 1 µM (panel of 442 kinases [6]): 91%
- remaining activity at 1 µM (panel of 442 kinases [7]): 87%
- remaining activity at 1 µM (panel of 442 kinases [8]): 100%
- remaining activity at 1 µM (panel of 442 kinases [9]): 100%

SMILES: FC(F)c1nc2ccccc2n1-c1nc(N2CCOCC2)nc(N2CCOCC2)n1 [ZSTK474, 2-(difluoromethyl)-1-[4,6-di(4-morpholinyl)-1,3,5-triazin-2-yl]-1H-benzimidazole]
- remaining activity at 1 µM (panel of 442 kinases [1]): 90%
- remaining activity at 1 µM (panel of 442 kinases [2]): 100%
- remaining activity at 1 µM (panel of 442 kinases [3]): 100%
- remaining activity at 1 µM (panel of 442 kinases [4]): 72%
- remaining activity at 1 µM (panel of 442 kinases [5]): 64%
- remaining activity at 1 µM (panel of 442 kinases [6]): 68%
- remaining activity at 1 µM (panel of 442 kinases [7]): 100%
- remaining activity at 1 µM (panel of 442 kinases [8]): 100%
- remaining activity at 1 µM (panel of 442 kinases [9]): 100%
